# In PMC8436250 (Nature structural & molecular biology, 2019):
# Changes are numbered by the printed parent chain. Names and notes keep the numbering of the source.
# T1: ATP-citrate lyase (ACLY) (Homo sapiens, UniProt P53396, E599Q)
# T1 sequence (P53396 1-1101 E599Q): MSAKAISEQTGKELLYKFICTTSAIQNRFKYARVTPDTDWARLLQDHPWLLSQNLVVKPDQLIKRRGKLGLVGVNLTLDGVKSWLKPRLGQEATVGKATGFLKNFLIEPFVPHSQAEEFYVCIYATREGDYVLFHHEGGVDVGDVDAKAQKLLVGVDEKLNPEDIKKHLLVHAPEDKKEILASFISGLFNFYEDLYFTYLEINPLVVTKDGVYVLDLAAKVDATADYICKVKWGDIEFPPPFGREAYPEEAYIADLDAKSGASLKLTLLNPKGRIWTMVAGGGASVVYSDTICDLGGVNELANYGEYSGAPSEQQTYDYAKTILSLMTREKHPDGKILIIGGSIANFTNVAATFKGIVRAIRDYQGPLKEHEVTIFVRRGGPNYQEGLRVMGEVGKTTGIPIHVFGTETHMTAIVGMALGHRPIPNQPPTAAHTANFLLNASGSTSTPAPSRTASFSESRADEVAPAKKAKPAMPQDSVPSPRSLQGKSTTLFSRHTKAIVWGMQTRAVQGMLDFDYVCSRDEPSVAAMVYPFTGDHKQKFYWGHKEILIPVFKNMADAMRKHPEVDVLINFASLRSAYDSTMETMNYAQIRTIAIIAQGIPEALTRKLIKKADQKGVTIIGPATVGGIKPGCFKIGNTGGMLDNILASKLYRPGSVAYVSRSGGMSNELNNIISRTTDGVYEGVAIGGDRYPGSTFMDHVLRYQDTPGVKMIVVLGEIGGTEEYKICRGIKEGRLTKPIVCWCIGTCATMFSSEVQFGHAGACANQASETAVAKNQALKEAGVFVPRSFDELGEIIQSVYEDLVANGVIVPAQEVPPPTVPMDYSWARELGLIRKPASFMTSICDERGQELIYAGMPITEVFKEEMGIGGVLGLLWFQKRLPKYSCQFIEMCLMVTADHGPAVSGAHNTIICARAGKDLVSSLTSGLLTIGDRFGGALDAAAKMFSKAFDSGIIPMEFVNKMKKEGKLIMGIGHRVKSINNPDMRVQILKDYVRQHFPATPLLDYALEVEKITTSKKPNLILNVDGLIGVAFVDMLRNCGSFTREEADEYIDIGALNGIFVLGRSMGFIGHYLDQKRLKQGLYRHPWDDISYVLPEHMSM
# T2: ATP-citrate lyase (ACLY) (Homo sapiens, UniProt P53396)
# T2 sequence (P53396 1-1101): T1 sequence (P53396 1-1101 E599Q) with Q599E
# T3: ATP-citrate lyase (ACLY), full length human, wild type (human), P53396
# T3 chain: T1 sequence (P53396 1-1101 E599Q) with Q599E
# B1: ATP-citrate lyase (ACLY), full length human, wild type, P53396 1-1101 (enzyme)
# chain: T1 sequence (P53396 1-1101 E599Q) with Q599E
# B2: ATP-citrate lyase (ACLY) E599Q catalytic mutant, full length human (enzyme, UniProt P53396 1-1101, looked up)
# chain: T1 sequence (P53396 1-1101 E599Q)
# Columns and labels:
# ATP-citrate lyase (ACLY) [1] = molecular target: T1, ATP-citrate lyase (ACLY); experiment: cryo-EM structure; assay type: binding
# ATP-citrate lyase (ACLY) [2] = molecular target: T2, ATP-citrate lyase (ACLY); experiment: cryo-EM structure; assay type: binding
# ATP-citrate lyase (ACLY) [3] = molecular target: T2, ATP-citrate lyase (ACLY); experiment: cryo-EM structure; assay type: binding; remark: listed apart in the source
# ATP-citrate lyase (ACLY) [4] = molecular target: T2, ATP-citrate lyase (ACLY); experiment: cryo-EM structure; assay type: binding; remark: listed apart in the source
# ATP-citrate lyase (ACLY) [5] = molecular target: T2, ATP-citrate lyase (ACLY); experiment: steady-state intrinsic fluorescence titration, one-site fit; assay type: binding
# [6] = molecular target: T3, ATP-citrate lyase (ACLY), full length …; experiment: cryo-EM structure; settings: remark: other sources report otherwise
# cryo-EM structure = molecular target: the molecule itself; experiment: cryo-EM structure
molecule,measurement,setting,value
Nc1ncnc2c1ncn2[C@@H]1O[C@H](COP(=O)(O)OP(=O)(O)O)[C@@H](O)[C@H]1O [ADP],"cryo-EM structure (2.85 Å) of mutant mixed with ATP, citrate and CoA",ATP-citrate lyase (ACLY) [1],ACLY-E599Q–ATP–citrate–CoA structure highlighting the bound ADP (hydrolyzed ATP) and phospho-citryl-CoA intermediate
"CC(C)(COP(=O)(O)OP(=O)(O)OC[C@H]1O[C@@H](n2cnc3c(N)ncnc32)[C@H](O)[C@@H]1OP(=O)(O)O)[C@@H](O)C(=O)NCCC(=O)NCCS [CoA, Coenzyme A]","cryo-EM structure (3.0 Å, D2)",ATP-citrate lyase (ACLY) [2],CoA binds at the interface between the CSH and ASH domains of separate subunits
"O=C(O)CC(=O)C(=O)O [OAA, oxaloacetate]",Kd,ATP-citrate lyase (ACLY) [3],15 ± 4 µM
CC(=O)SCCNC(=O)CCNC(=O)[C@H](O)C(C)(C)COP(=O)(O)OP(=O)(O)OC[C@H]1O[C@@H](n2cnc3c(N)ncnc32)[C@H](O)[C@@H]1OP(=O)(O)O [acetyl-CoA],"cryo-EM structure (3.1 Å, D2) with OAA; DSF stabilization",ATP-citrate lyase (ACLY) [4],"acetyl-CoA occupied the same binding site as CoA and was also stabilized by the same basic residues, R576 and K964"
O=C(O)CC(O)(CC(=O)O)C(=O)O [citrate],Kd,ATP-citrate lyase (ACLY) [5],3.4 ± 0.5 µM
B1,stoichiometry N,[6],4
B2,binding result,cryo-EM structure,binds
